Laboratory results taken from patent US8227616B2, “Cyanopyridine antibacterial agents and methods of use thereof” (Wisconsin Alumni Research Foundation, priority 2006, dated 2012).
≈ marks a conversion by molar mass, not a printed value.

Columns and labels:
[1] = system: Methicillin-resistant S. aureus ATCC 33591 (MRSA); experiment: MIC determination with authentic compounds resynthesized in solution; type: cell-based; conditions: Staphylococcus aureus; Table 3; authentic sample, only trans isomers of chalcones; error reflects step size in the serial dilutions
Description: (§1) For estimated MIC determination, DMSO was added to the dried compound residue obtained from a single spot to afford ca. 100 μL of a 2 mM stock solution. Aliquots (5 μL) of these solutions were added to a 96-well plate, followed by 195 μL of diluted S. aureus 10390 (10^6 CFUs/mL) to yield ca. 50 μM final concentrations. The plates were swirled for 1 h to ensure compound dissolution, incubated for 12 h at 37° C., and the absorbance at 595 nm was recorded using a plate reader. […] Actual MIC values were determined for lead compounds resynthesized in solution using an analogous procedure with solutions of known concentration (see).
(§2) Dose response growth inhibition curves were determined for each active compound (resynthesized in solution) against S. aureus 10390 (SA) and methicillin-resistant S. aureus 33591 (MRSA). […] MIC assays were performed in quadruplicate.

[2] = system: S. aureus ATCC 10390; experiment: as above; type: cell-based, Staphylococcus aureus; set-up: MIC against S. aureus 10390: unit: uM; conditions: for MIC: Staphylococcus aureus, ATCC10390; for MIC against S. aureus 10390: values quoted in killing-curve protocol, unit not given
Description: as §1, §2

[3] = system: K. pneumoniae; experiment: Agar overlay TTC assay, compound overlays; type: cell-based, Klebsiella pneumoniae; conditions: 30 nanomole aliquots of purified compound on filter paper
[4] = system: S. epidermidis ATCC 12228; experiment: MIC determination, species selectivity; type: cell-based; conditions: Staphylococcus epidermidis, ATCC12228; authentic sample, only trans isomers of chalcones; error reflects step size
Description: (§3) Each compound from Table 3 was tested for inhibitory activity at 2.5, 5, 7.5, 10, 15, 20, 25, and 30 μM in the susceptible overlaid strains: B. subtilis ATCC 6633, S. epidermidis ATCC 12228, and K. pneumoniae ATCC 4352. MIC assays were run in quadruplicate as described above (with shaking).

[5] = system: K. pneumoniae ATCC 4352; experiment: MIC determination, species selectivity; type: cell-based; conditions: Klebsiella pneumoniae, ATCC4352; authentic sample, only trans isomers of chalcones; error reflects step size
Description: as §3

[6] = system: B. subtilis subsp. spizizenii ATCC 6633; experiment: MIC determination, species selectivity; type: cell-based; conditions: Bacillus subtilis, ATCC6633; authentic sample, only trans isomers of chalcones; error reflects step size
Description: as §3

[7] = system: S. aureus ATCC 10390; experiment: Estimated MIC, solution-phase microdilution absorbance assay with crude macroarray spot stock solutions; type: cell-based, Staphylococcus aureus; conditions: for MIC: Staphylococcus aureus, ATCC10390, 12 h; for inhibition of S. aureus at the 12.5 μM level: macroarray stock solutions diluted four fold
Description: Spots from a new 69 member chalcone macroarray as well as the three heterocyclic macroarrays prepared earlier were punched out, cleaved, and eluted with acetonitrile. The resulting solutions were concentrated to a residue that was taken up in DMSO to form 2 mM stock solutions.
From the stock solutions, microdilution assays in a 96 well plate starting at 50 μM were performed in quadruplicate. Each well contained 5 μL of the stock solution as well as 195 μL of a S. aureus culture. The turbidity of each well was measured after incubating 12 hours using a standard plate reader. Active compounds can be further diluted and the assay repeated.
To acquire more quantitative antibacterial activity data about our compounds and verify our on-support assay results, we performed solution-phase absorbance assays that provided estimates of the minimum inhibitory concentration (MIC) of each macroarray member against S. aureus. Stock solutions (ca. 2 mM) were generated by cleaving and eluting 198 individual compounds from chalcone (3) and heterocyclic macroarrays (5, 7, and 8). […] The good overall purities of the crude macroarray compounds allowed for reasonable estimations of MICs.
as §1
Preparation of spot samples and controls. An aliquot of DMSO (ca. 100 μL depending on the loading of the parent hydroxyacetophenone) was added to the dried compound residue obtained after TFA cleavage and elution from a single spot. This afforded a 2.0 mM “spot stock” solution for each spot. A small aliquot of each “spot stock” solution was saved for subsequent LC-MS analysis.
For estimated MIC screens, 5.0 μL portions of the “spot stock” solutions were added to the appropriate wells in a sterile, polystyrene 96-well plate to yield ca. 50 μM solutions (dependent on the initial loading of hydroxyacetopheneone and compound purity). To the positive and negative control wells, 5.0 μL of DMSO were added (positive controls contained bacteria but no compound, while negative controls had neither compound nor bacteria). All estimated MIC assays were performed in quadruplicate. Note: the MIC value is defined as the lowest concentration where no bacterial growth occurs.
Representative estimated MIC assay procedure. This assay procedure is based in part on the method reported by Strøm et al.^xiii A 400 μL portion of overnight S. aureus 10390 culture was diluted with 100 mL of sterile LB broth to give ca. 10^6 CFUs per mL. Aliquots (195 μL) of this solution were added to all of the wells in a sterile 96-well plate (except for the negative control wells; 195 μL of sterile LB broth were added to these wells). The plates were placed on an orbital shaker table and gently swirled for 1 h to ensure compound dissolution, and then incubated (without shaking) for 12 h at 37° C. The absorbance at 595 nm was recorded using a plate reader.
The original “spot stock” solutions of these compounds were diluted with DMSO to give ca. 25 and 13 μM final concentrations and tested for inhibitory activities using the procedure described above.

[8] = system: S. aureus ATCC 10390; experiment: Kirby-Bauer disk diffusion assay on compound spots from cleaved macroarray; type: cell-based, Staphylococcus aureus; conditions: loadings 30 μg/spot, 18 h incubation
Description: While the heterocyclic libraries were being synthesized, the chalcone macroarrays were analyzed using various direct assay techniques such as the Kirby-Bauer disk diffusion assay (FIG. 2E). Bauer, A. W.; Kirby, […].; Turck, M. Technical Bulletin of the Registry of Medical Technologists 1966, 36, 49-52. For this assay, the macroarray members are punched out from the membrane, cleaved from the support with TFA vapor, neutralized with ammonia vapor, and then placed on an agar bed inoculated with S. aureus. After incubating overnight, different diameters of zones of inhibition are measured as a factor of potency as well as solubility in the medium. Ammonia vapor neutralization was key in the disk diffusion assay, otherwise residual TFA vapor created a false positive signature. However, in this method, macroarrays have to be made in triplicate one for a replicate and one for compound characterization. We first evaluated test chalcone macroarrays (3) in antibacterial assays against S. aureus. Because the macroarrays were prepared on cellulose filter paper, we had convenient access to the compounds in disk form for standard disk diffusion assays. Compound spots were punched out of the macroarrays, subjected to vapor phase cleavage with acid (TFA), and neutralized (NH3) to afford disks containing ca. 30 μg of adsorbed compound [8]. These disks were manually placed on lawns of S. aureus, and zones of inhibition were measured after an 18 h incubation period. […] However, this antibacterial assay format had drawbacks: (1) the entire sample of compound was consumed during the assay, and thus replicate arrays needed to be synthesized to confirm activity, and (2) manipulating large numbers of compound disks was relatively labor intensive. Compound spots were cleaved with TFA and neutralized with NH3 as described herein. […] Compound spots were placed onto the agar, the plate was incubated at 37° C. for 18 h, and the diameters of the zones of inhibition were measured. […] Compound spots were subjected to the TFA cleavage conditions described above. The spots were next subjected to NH3 vapor to neutralize any remaining TFA. […] Vials containing the spots (or intact macroarrays) were placed inside a small evaporating dish, and this was placed into the NH4OH solution. The Pyrex dish was covered, and NH3 vapor was allowed to slowly diffuse into the vials. After 1 h, the vials were removed from the NH3 chamber, and the spots were allowed to stand open in a fume hood for at least 15 min to vent prior to analysis in the following assays. This afforded dry, paper disks containing adsorbed compound. […] The plates were removed, and the diameters of the zones of inhibition were measured in mm using a ruler (see FIG. 1A).

[9] = system: S. aureus 10390; experiment: Time-dependent bacterial killing curves; type: cell-based, Staphylococcus aureus; conditions: 0.5x to 4x MIC, 0-6 h
Description: Solutions of compounds 4Bv, 6Ao, 9Cf, and linezolid were prepared in DMSO over a range of concentrations. […] At 0, 2, 4, and 6 h time points, […] samples were withdrawn from the test tubes, diluted into 10 mL of LB broth in a test tube, and swabbed in duplicate on agar plates to determine CFUs. These plates were incubated at 37° C. for 24 h, after which time the colonies were counted visually. […] Instead, 200 μL was removed from the test tube and directly swabbed on the agar plates.

[10] = Table 2, authentic sample synthesized according to standard techniques, read-out: observed MIC
[11] = Table 3, authentic sample, only trans isomers of chalcones, error reflects step size in the serial dilutions, read-out: S. aureus MIC
[12] = Table 2, serial dilution of stock solutions obtained by SPOT-synthesis, read-out: estimated MIC range
[13] = Table 3, serial dilution of spot stock solutions of crude macroarray compounds, read-out: S. aureus Estimated MIC range

SMILES	MIC [1] [µM]	MIC [2, 10] [µM]	MIC [2, 11] [µM]	susceptibility in agar overlay TTC assay [3]	MIC [4] [µM]	MIC [5] [µM]	MIC [6] [µM]	MIC [7, 12] [µM]	MIC [7, 13] [µM]	Zones of inhibition [8] [mm]	inhibition of S. aureus at the 12.5 μM level [7]	MIC against S. aureus 10390 [2]	mode of activity (bacteriostatic or bactericidal) [9]
O=C(O)c1cn(C2CC2)c2cc(N3CCNCC3)c(F)cc2c1=O [Ciprofloxacin, ciprofloxacin, reference compound]	0.9 ± 0.1 (≈ 0.298 µg/mL)	0.75 ± 0.12 (≈ 0.249 µg/mL)	0.6 ± 0.1 (≈ 0.199 µg/mL)										
O=C(/C=C/c1ccc(Cl)cc1Cl)c1ccc(O)cc1 [Compound 4At, 2,4-dichloro-4′-hydroxychalcone]	18.7 ± 1.2 (≈ 5.48 µg/mL)	18.8 ± 1.2 (≈ 5.51 µg/mL)	21.2 ± 1.2 (≈ 6.21 µg/mL)	weakly susceptible	27.5 ± 2.5 (≈ 8.06 µg/mL)	> 250	27.5 ± 2.5 (≈ 8.06 µg/mL)	25 to 50 (≈ 7.33 to 14.7 µg/mL)	25 to 50 (≈ 7.33 to 14.7 µg/mL)				
O=C(/C=C/c1cccc(Br)c1)c1cccc(O)c1 [Compound 4Be, 3-bromo-3′-hydroxychalcone]	20 ± 1 (≈ 6.06 µg/mL)	24 ± 2 (≈ 7.28 µg/mL)	21 ± 1 (≈ 6.37 µg/mL)	weakly susceptible	22.5 ± 2.5 (≈ 6.82 µg/mL)	40 ± 10 (≈ 12.1 µg/mL)	22.5 ± 2.5 (≈ 6.82 µg/mL)	25 to 50 (≈ 7.58 to 15.2 µg/mL)	25 to 50 (≈ 7.58 to 15.2 µg/mL)				
COc1cc(C(=O)/C=C/c2ccc(Br)cc2)ccc1O [Compound 4Cf, 4-bromo-4′-hydroxy-3′-methoxy-chalcone]	> 250	> 250	> 250					> 50	> 50	< 1			
Cc1nc(-c2ccc(O)cc2)cc(-c2cccc(Cl)c2Cl)c1C#N [Compound 6Al, 4-(2,3-dichlorophenyl)-6-(4-hydroxyphenyl)-2-methyl-3-cyanopyridine]	10 ± 0.5 (≈ 3.55 µg/mL)	8.7 ± 1.3 (≈ 3.09 µg/mL)	10 ± 0.5 (≈ 3.55 µg/mL)		12.5 ± 2.5 (≈ 4.44 µg/mL)		6.3 ± 1.2 (≈ 2.24 µg/mL)	12.5 to 25 (≈ 4.44 to 8.88 µg/mL)	12.5 to 25 (≈ 4.44 to 8.88 µg/mL)				
Cc1nc(-c2ccc(O)cc2)cc(-c2c(Cl)ccc(Cl)c2Cl)c1C#N [Compound 6Ao, 6-(4-hydroxyphenyl)-2-methyl-4-(2,3,6-trichlorophenyl)-3-cyanopyridine]	7.5 ± 1.2 (≈ 2.92 µg/mL)	6 ± 0.5 (≈ 2.34 µg/mL)	7.5 ± 1.2 (≈ 2.92 µg/mL)		6.3 ± 1.2 (≈ 2.45 µg/mL)		3.8 ± 1.2 (≈ 1.48 µg/mL)	6.25 to 12.5 (≈ 2.44 to 4.87 µg/mL)	< 12.5		complete inhibition	~7.5	bactericidal
Cc1nc(-c2cccc(O)c2)cc(-c2ccc(Cl)cc2Cl)c1C#N [Compound 6Bt, 4-(2,4-dichlorophenyl)-6-(3-hydroxyphenyl)-2-methyl-3-cyanopyridine]	13.4 ± 0.9 (≈ 4.76 µg/mL)	10 ± 1 (≈ 3.55 µg/mL)	11.6 ± 0.9 (≈ 4.12 µg/mL)		17.5 ± 2.5 (≈ 6.22 µg/mL)		22.5 ± 2.5 (≈ 7.99 µg/mL)	6.25 to 12.5 (≈ 2.22 to 4.44 µg/mL)	< 12.5		complete inhibition		
COc1cc(-c2cc(-c3ccc(Br)cc3)nc(C)n2)ccc1O [Compound 9Cf, 4-(4-bromophenyl)-6-(4-hydroxy-3-methoxyphenyl)-2-methylpyrimidine]	31.2 ± 1.2 (≈ 11.6 µg/mL)		32.5 ± 1.2 (≈ 12.1 µg/mL)		> 30		17.5 ± 2.5 (≈ 6.5 µg/mL)		25 to 50 (≈ 9.28 to 18.6 µg/mL)			~32.5	bacteriostatic
CC(=O)NC[C@H]1CN(c2ccc(N3CCOCC3)c(F)c2)C(=O)O1 [Linezolid, linezolid, reference compound]	8 ± 1 (≈ 2.7 µg/mL)	6 ± 0.5 (≈ 2.02 µg/mL)	10 ± 1 (≈ 3.37 µg/mL)									~10.0	bacteriostatic
CN[C@H](CC(C)C)C(=O)N[C@H]1C(=O)N[C@@H](CC(N)=O)C(=O)N[C@H]2C(=O)N[C@H]3C(=O)N[C@H](C(=O)N[C@H](C(=O)O)c4cc(O)cc(O)c4-c4cc3ccc4O)[C@H](O)c3ccc(c(Cl)c3)Oc3cc2cc(c3O[C@@H]2O[C@H](CO)[C@@H](O)[C@H](O)[C@H]2O[C@H]2C[C@](C)(N)[C@H](O)[C@H](C)O2)Oc2ccc(cc2Cl)[C@H]1O [vancomycin, reference compound]										20			
